Experimental findings from ChEMBL document CHEMBL3044994, “Synthesis and evaluation of novel carbamate-substituted flavanone derivatives as potent acetylcholinesterase inhibitors and anti-amnestic agents” (Med Chem Res, 2013) are described below.

Activity calls are given as the source filed them. No cut-off for these calls is given here.

In one assay the target is T1, Acetylcholinesterase (Rattus norvegicus, UniProt P37136).
T1 sequence (P37136 whole entry): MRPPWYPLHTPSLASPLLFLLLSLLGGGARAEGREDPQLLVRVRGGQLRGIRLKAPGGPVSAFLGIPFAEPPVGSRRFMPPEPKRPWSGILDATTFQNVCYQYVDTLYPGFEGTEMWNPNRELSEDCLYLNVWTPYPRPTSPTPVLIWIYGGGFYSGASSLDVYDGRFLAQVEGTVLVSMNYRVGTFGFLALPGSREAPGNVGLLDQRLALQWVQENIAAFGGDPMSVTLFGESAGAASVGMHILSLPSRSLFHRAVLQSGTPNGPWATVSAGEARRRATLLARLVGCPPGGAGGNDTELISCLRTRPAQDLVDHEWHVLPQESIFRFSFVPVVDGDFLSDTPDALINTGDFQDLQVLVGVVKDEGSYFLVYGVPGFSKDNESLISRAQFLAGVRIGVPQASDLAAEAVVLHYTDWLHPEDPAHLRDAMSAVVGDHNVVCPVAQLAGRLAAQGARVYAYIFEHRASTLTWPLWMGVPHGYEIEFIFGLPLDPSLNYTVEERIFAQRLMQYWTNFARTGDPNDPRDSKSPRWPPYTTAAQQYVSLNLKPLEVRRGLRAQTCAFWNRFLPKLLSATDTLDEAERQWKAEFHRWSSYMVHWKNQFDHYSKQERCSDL
Put plainly: Inhibition of AchE in Rattus norvegicus (rat) cortex homogenates by Ellman's method.

Assay [1] concerns Mus musculus. Put plainly: Antiamnestic activity in scopolamine-induced Swiss albino Mus musculus (mouse) memory deficit model assessed as escape latency time at 5 mg/kg, ip administered 30 min prior to scopolamine challenge measured on day 4 by Morris water maze test (reference value: 78.7 +/- 5.7 secs). As to conditions: route intraperitoneal. The class given is functional.
The test system of assay [2] is Mus musculus. Put plainly: Antiamnestic activity in scopolamine-induced Swiss albino Mus musculus (mouse) memory deficit model assessed as escape latency time at 2 mg/kg, ip administered 30 min prior to scopolamine challenge measured on day 1 by Morris water maze test (reference value: 89.7 +/- 3.8 secs). Type of assay: functional. As to conditions: route intraperitoneal.

Assay [3] relates to Mus musculus. The assay can be described thus: Antiamnestic activity in scopolamine-induced Swiss albino Mus musculus (mouse) memory deficit model assessed as escape latency time at 10 mg/kg, ip administered 30 min prior to scopolamine challenge measured on day 1 by Morris water maze test (reference value: 89.7 +/- 3.8 secs). Type of assay: functional. As to conditions: route intraperitoneal.

Assay [4] concerns Mus musculus. The assay can be described thus: Antiamnestic activity in scopolamine-induced Swiss albino Mus musculus (mouse) memory deficit model assessed as increase in time spent in target quadrant at 2 to 10 mg/kg, ip administered 30 min prior to scopolamine challenge measured on day 5 by Morris water maze test relative to vehicle-treated control. The class given is functional, organism-based.

Assay [5] relates to Mus musculus. Put plainly: Antiamnestic activity in scopolamine-induced Swiss albino Mus musculus (mouse) memory deficit model assessed as escape latency time at 2 mg/kg, ip administered 30 min prior to scopolamine challenge measured on day 4 by Morris water maze test (reference value: 78.7 +/- 5.7 secs). The class given is functional. The settings on record: route intraperitoneal.

Assay [6] deals with Mus musculus. The assay can be described thus: Antiamnestic activity in scopolamine-induced Swiss albino Mus musculus (mouse) memory deficit model assessed as escape latency time at 10 mg/kg, ip administered 30 min prior to scopolamine challenge measured on day 4 by Morris water maze test (reference value: 78.7 +/- 5.7 secs). Type of assay: functional. The settings on record: route intraperitoneal.

Assay [7] relates to Mus musculus. The assay can be described thus: Antiamnestic activity in scopolamine-induced Swiss albino Mus musculus (mouse) memory deficit model assessed as escape latency time at 5 mg/kg, ip administered 30 min prior to scopolamine challenge measured on day 1 by Morris water maze test (reference value: 89.7 +/- 3.8 secs). The settings on record: route intraperitoneal. The class given is functional.

For assay [8], the system named is Mus musculus. The assay can be described thus: Antiamnestic activity in scopolamine-induced Swiss albino Mus musculus (mouse) memory deficit model assessed as increase in time spent in target quadrant at 25 mg/kg, ip administered 30 min prior to scopolamine challenge measured on day 5 by Morris water maze test relative to vehicle-treated control. The class given is functional, organism-based. Set-up: dose 25 mg/kg.

The term IC50 denotes the concentration needed to halve the response being measured. A low value points to greater potency in that assay.

The molecule `COc1cc(C2CC(=O)c3ccccc3O2)cc([N+](=O)[O-])c1O` (stereo unspecified) gave a 50% inhibitory concentration (IC50) against Acetylcholinesterase of 144 nM. In other words, the sub-micromolar range. Still for that read-out and setting: the result for `O=C1CC(c2ccccc2O)Oc2ccccc21` (stereo unspecified) [2'-HYDROXY-FLAVANONE] reads 149 nM. Same read-out and setting: the result for `COc1cc(OC)c2c(c1)OC(c1cc(OC)c(O)c([N+](=O)[O-])c1)CC2=O` (stereo unspecified) reads 116 nM; that for `COc1cc(C2CC(=O)c3ccccc3O2)cc([N+](=O)[O-])c1OC(=O)Nc1ccccc1` (stereo unspecified), 30.5 nM; that for `COc1cc(C2CC(=O)c3ccccc3O2)ccc1OC(=O)Nc1ccccc1` (stereo unspecified), 21.9 nM. In the case of `COc1cc(OC)c2c(c1)OC(c1ccc(OC)c(O)c1)CC2=O` (stereo unspecified), the midpoint of inhibition at Acetylcholinesterase, the IC50, lay at 114 nM.

Take `COc1cc(OC)c2c(c1)OC(c1ccccc1O)CC2=O` (stereo unspecified): on Acetylcholinesterase, the IC50 turned out to be 120 nM. Still for that read-out and setting: the result for `COc1cc(C2CC(=O)c3ccccc3O2)ccc1O` (stereo unspecified) reads 138 nM; that for `COc1cc(OC)c2c(c1)OC(c1ccc(OC(=O)Nc3ccccc3)c(OC)c1)CC2=O` (stereo unspecified), 12.8 nM; that for `COc1cc(OC)c2c(c1)OC(c1ccc(OC)c(OC(=O)Nc3ccccc3)c1)CC2=O` (stereo unspecified), 16.3 nM.

As to `COc1cc(OC)c2c(c1)OC(c1cc(OC)c(OC(=O)Nc3ccccc3)c(OC)c1)CC2=O` (stereo unspecified), at Acetylcholinesterase, the midpoint of inhibition, the IC50, lay at 9.9 nM. Besides, the Time was determined as 66.4 s in the assay with Mus musculus [1]; 84.3 s in the assay with Mus musculus [2]; 83.1 s with Mus musculus [3]; 72.1 s in the assay with Mus musculus [5]; 45.4 s with Mus musculus [6]; 87.5 s in the assay with Mus musculus [7]. The outcome in the assay on Mus musculus [4] was Active. With `COc1cc(C2CC(=O)c3ccccc3O2)cc(OC)c1O` (stereo unspecified), the half-inhibitory concentration (IC50) on Acetylcholinesterase worked out at 131 nM. The molecule `COc1ccc(C2CC(=O)c3ccccc3O2)cc1OC(=O)Nc1ccccc1` (stereo unspecified) yielded an IC50 against Acetylcholinesterase of 27.6 nM. Regarding `O=C(Nc1ccccc1)Oc1ccccc1C1CC(=O)c2ccccc2O1` (stereo unspecified), the IC50 at Acetylcholinesterase was determined as 39.9 nM. The IC50 values of the last two molecules are within 1.5-fold of each other. On the same count and under the same terms, the result for `COc1cc(OC)c2c(c1)OC(c1cc(OC)c(OC(=O)Nc3ccccc3)c([N+](=O)[O-])c1)CC2=O` (stereo unspecified) reads 18.2 nM.

On Acetylcholinesterase, `COc1cc(C2CC(=O)c3ccccc3O2)cc(OC)c1OC(=O)Nc1ccccc1` (stereo unspecified) registered a half-inhibitory concentration (IC50) of 19.3 nM. The same measure, in the same setting: the result for `O=C(Nc1ccccc1)Oc1ccc(C2CC(=O)c3ccccc3O2)cc1` (stereo unspecified) reads 36.7 nM. In the case of `COc1cc2c(cc1OC)C(=O)C(CC1CCN(Cc3ccccc3)CC1)C2` (stereo unspecified), in the assay on Mus musculus [8], the result was Active. `O=C(Nc1ccccc1)Oc1cccc(C2CC(=O)c3ccccc3O2)c1` (stereo unspecified) yielded a half-inhibitory concentration (IC50) at Acetylcholinesterase of 38.8 nM. This counts as double-digit nanomolar.

Regarding `COc1cc(OO)cc2c1C(=O)CC(c1ccccc1OC(=O)Nc1ccccc1)O2` (stereo unspecified), inhibition on Acetylcholinesterase was half-maximal at 21.5 nM (IC50). Same read-out and setting: the result for `COc1cc(OC)c2c(c1)OC(c1ccc(OC(=O)Nc3ccccc3)cc1)CC2=O` (stereo unspecified) reads 18.8 nM; that for `COc1cc(OC)c2c(c1)OC(c1cccc(OC(=O)Nc3ccccc3)c1)CC2=O` (stereo unspecified), 19.6 nM; that for `COc1cc(OC)c2c(c1)OC(c1cc(OC)c(O)c(OC)c1)CC2=O` (stereo unspecified), 107 nM. For `O=C1CC(c2ccc(O)cc2)Oc2ccccc21` (stereo unspecified) [4'-HYDROXY-FLAVANONE], the IC50 against Acetylcholinesterase is 145 nM. Same read-out and setting: the result for `COc1cc(OC)c2c(c1)OC(c1cccc(O)c1)CC2=O` (stereo unspecified) reads 119 nM; that for `COc1cc(OC)c2c(c1)OC(c1ccc(O)c(OC)c1)CC2=O` (stereo unspecified), 112 nM; that for `COc1ccc(C2CC(=O)c3ccccc3O2)cc1O` (stereo unspecified), 140 nM. The same measure, in the same setting: the result for `COc1cc(OC)c2c(c1)OC(c1ccc(O)cc1)CC2=O` (stereo unspecified) reads 118 nM. The same measure, in the same setting: the result for `O=C1CC(c2cccc(O)c2)Oc2ccccc21` (stereo unspecified) [3'-HYDROXYFLAVANONE] reads 147 nM.
